Measured values published in patent publication US9226916B2, “Pyrrolidine derivatives” (HOFFMANN-LA ROCHE INC., priority 2009, dated 2016).
Where two headings read alike, the source gives them in different places.

Key:
[1] = target: T1, recombinant human NK3 receptor (Homo sapiens, UniProt P29371); assay: [3H]SR142801 competition binding assay
T1 construct: expressed in transfected cells; host or cells: HEK293 cells, transient expression; membranes
T1 sequence (P29371 1-465): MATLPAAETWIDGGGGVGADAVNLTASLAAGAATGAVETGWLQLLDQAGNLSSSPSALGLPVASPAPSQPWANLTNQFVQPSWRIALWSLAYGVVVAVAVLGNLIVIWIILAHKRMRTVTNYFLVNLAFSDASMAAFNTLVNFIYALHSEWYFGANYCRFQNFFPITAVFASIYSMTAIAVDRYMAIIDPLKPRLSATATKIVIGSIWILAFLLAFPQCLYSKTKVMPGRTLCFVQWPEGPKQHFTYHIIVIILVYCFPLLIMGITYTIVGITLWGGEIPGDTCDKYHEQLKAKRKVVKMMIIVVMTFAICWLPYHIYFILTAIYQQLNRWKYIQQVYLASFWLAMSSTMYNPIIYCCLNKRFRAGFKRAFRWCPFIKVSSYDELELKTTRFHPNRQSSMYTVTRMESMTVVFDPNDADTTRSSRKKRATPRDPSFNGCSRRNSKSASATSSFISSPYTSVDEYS

[2] = target: T2, NK3 tachykinin receptor (Homo sapiens, UniProt P29371); settings: phase II trial, cited from earlier work
T2 sequence (P29371 1-465): T1 sequence (P29371 1-465)

Compound: CC(=O)Oc1ccc(N2CCC(C(=O)N3C[C@@H](N(C)C(=O)Oc4ccc(F)cc4)[C@H](c4ccc(Cl)cc4)C3)CC2)nc1 [Example 321, Acetic acid 4-{(3R,4S)-3-(4-chloro-phenyl)-4-[(4-fluoro-phenoxycarbonyl)-methyl-amino]-pyrrolidine-1-carbonyl}-3,4,5,6-tetrahydro-2H-[1,2′]bipyridinyl-5′-yl ester]
- Ki [1]: 2.4 nM

Compound: CC(=O)N(C)C1(c2ccccc2)CCN(CCC[C@]2(c3ccc(Cl)c(Cl)c3)CCCN(C(=O)c3ccccc3)C2)CC1 [SR 142,801, Osanetant]
- activity in the treatment of negative symptoms of schizophrenia ([2]; negative symptoms (depression, anhedonia, social isolation, memory and attention deficits)): inactive
- activity on positive symptoms of schizophrenia ([2]; positive symptoms (altered behaviour, delusion, hallucinations, extreme emotions, excited motor activity, incoherent speech)): active

Compound: rac-{(3R,4S)-4-(3,4-Dichloro-phenyl)-1-[1-(1-methyl-cyclopropanecarbonyl)-piperidine-4-carbonyl]-pyrrolidin-3-yl}-methyl-carbamic acid (S)-1-(tetrahydro-furan-2-yl)methyl ester and rac-{(3R,4S)-4-(3,4-Dichloro-phenyl)-1-[1-(1-methyl-cyclopropanecarbonyl)-piperidine-4-carbonyl]-pyrrolidin-3-yl}-methyl-carbamic acid (R)-1-(tetrahydro-furan-2-yl)methyl ester [Example 84]
- Ki ([1]; read-out: Data Ki): 18.3 nM
